From US6525063B2, “Antitumour 1,5-diazaanthraquinones” (Universidad Complutense de Madrid, priority 1998, dated 2003)

How the values were obtained:
[1] = tested on: A549 (ATCC CCL-185) cells; assay: in vitro cytotoxic assay, A549 cells; format: cell-based; conditions: 72 h; A549 human lung carcinoma monolayer; three days of incubation; Crystal Violet staining; approximate IC50
Description: (§1) Cells were maintained in logarithmic phase of growth in Eagle's Minimum Essential Medium, with Earle's Balanced Salts, with 2.0 mM L-glutamine, with non-essential amino acids, without sodium bicarbonate (EMEM/neaa); supplemented with 10% Fetal Calf Serum (FCS), 10^−2 M sodium bicarbonate and 0,1 g/l penicillin-G+streptomycin sulfate.
(§2) A screening procedure has been carried out to determine and compare the antitumour activity of these compounds, using an adapted form of the method described by Raymond J. Bergeron, Paul F. Cavanaugh Jr., Steven J. Kline, Robert G. Hughes, Jr., Gary T. Elliot and Carl W. Porter. Antineoplastic and antiherpetic activity of spermidine catecholamide iron chelators. Biochem. Bioph. Res. Comm. 1984, 121, 848-854. The antitumour cells employed were P388 (ATCC CCL-46) (suspension culture of a lymphoid neoplasm from DBA/2 mouse), A549 (ATCC CCL-185) (monolayer culture of a human lung carcinoma), HT-29 (ATCC HTB-38) (monolayer culture of a human colon carcinoma) and SK-MEL-28 (ATCC HTB-72) (monolayer culture of a human melanoma).
(§3) A549 (ATCC CCL-185), HT-29 (ATCC HTB-38) and SK-MEL-28 (ATCC HTB-72) cells were seeded into 16 mm wells at 2×10^4 cells per well in 1 ml aliquots of MEM 10FCS containing the indicated concentration of drug. A separate set of cultures without drug was seeded as control growth to ensure that cells remained in exponential phase of growth. All determinations were carried out in duplicate. After three days of incubation at 37° C., 10% CO2 in a 98% humid atmosphere, the wells were stained with 0.1% Crystal Violet. An approximately IC50 was determined by comparing the growth in wells with drug to the growth in wells control.
(§4) The results of the in vitro cytotoxic assays for these compounds (4a), (4b), (4c), (4d), (11a), (12a), (13a), (13b), and (14a) with the cellular lines P388 (ATCC CCL-46), A549 (ATCC CCL-185), HT-29 (ATCC HTB-38) and SK-MEL-28 (ATCC HTB-72) are shown in the following Table.

P388 (ATCC CCL-46) cells = assay: in vitro cytotoxic assay, P388 cells; format: cell-based; conditions: 72 h; P388 lymphoid neoplasm from DBA/2 mouse, suspension culture; three days of incubation; approximate IC50 by growth vs control
Description: as §1, §2
P388 (ATCC CCL-46) cells were seeded into 16 mm wells at 1×10^4 cells per well in 1 ml aliquots of MEM 5FCS containing the indicated concentration of drug. A separate set of cultures without drug was seeded as control growth to ensure that cells remained in exponential phase of growth. All determinations were carried out in duplicate.
as §4

[2] = tested on: HT-29 (ATCC HTB-38) cells; assay: in vitro cytotoxic assay, HT-29 cells; format: cell-based; conditions: 72 h; HT-29 human colon carcinoma monolayer; three days of incubation; Crystal Violet staining; approximate IC50
Description: as §1, §2, §3, §4

[3] = tested on: SK-MEL-28 (ATCC HTB-72) cells; assay: in vitro cytotoxic assay, SK-MEL-28 cells; format: cell-based; conditions: 72 h; SK-MEL-28 human melanoma monolayer; three days of incubation; Crystal Violet staining; approximate IC50
Description: as §1, §2, §3, §4

Structure (SMILES)	IC50 [1]	IC50 (P388 (ATCC CCL-46) cells)	melting point	IC50 [2]	IC50 [3]
Cc1cnc2c(c1)C(=O)c1nccc(Cl)c1C2=O [(11a), 8-Chloro-3-methyl-1,5-diazaanthraquinone]	30 nM	150 nM	208 to 210 °C	40 nM	30 nM
CC1C=CN(N(C)C)C2=C1C(=O)c1nccc(Cl)c1C2=O (stereo not shown) [(12a), 8-Chloro-1-dimethylamino-4-methyl-1,4-dihydro-1,5-diazaanthraquinone]	330 nM	3290 nM	–	1650 nM	330 nM
Cc1ccnc2c1C(=O)c1nccc(N(C)C)c1C2=O [(14a), 4-Dimethylamino-8-methyl-1,5-diazaanthraquinone]	370 nM	9360 nM	97 to 100 °C	940 nM	370 nM
CCc1cnc2c(c1)C(=O)c1ncc(CC)cc1C2=O [(4a), 3,7-Diethyl-1,5-diazaanthraquinone]	50 nM	450 nM	218 to 220 °C	190 nM	50 nM
Cc1ccnc2c1C(=O)c1nccc(C)c1C2=O [(4c), 4,8-Dimethyl-1,5-diazaanthraquinone]	500 nM	4200 nM	253 to 254 °C	1050 nM	1050 nM
CCc1c(C)cnc2c1C(=O)c1ncc(C)c(CC)c1C2=O [(4d), 4,8-Diethyl-3,7-dimethyl-1,5-diazaanthraquinone]	3400 nM	3400 nM	180 to 182 °C	3400 nM	3400 nM
Cc1ccnc2c1C(=O)c1nccc(Cl)c1C2=O [(13a), 4-Chloro-8-methyl-1,5-diazaanthraquinone]	190 nM	3870 nM	> 300 °C	1930 nM	190 nM
O=C1c2nccc(-c3ccccc3[N+](=O)[O-])c2C(=O)c2nccc(Cl)c21 [(13b), 4-Chloro-8-(o-nitrophenyl)-1,5-diazaanthraquinone]	30 nM	270 nM	–	270 nM	70 nM
Cc1cnc2c(c1)C(=O)c1ncc(C)cc1C2=O [(4b), 3,7-Dimethyl-1,5-diazaanthraquinone]	50 nM	7350 nM	> 300 °C	510 nM	110 nM
